Experimental findings from patent US20090069441A1, “Motuporamine Mimic Agents” (priority 2006, published 2009) are described below.

Assay [1] has as its system Drosophila imaginal leg discs. The experiment in a line: Imaginal disc eversion assay. It counts as cell-based, Drosophila melanogaster. The note with it: 15 hr incubation in Robb's medium; for inhibition at 18 µM: Drosophila melanogaster. As for the experimental part: DihydroMotuporamine C, 4a, was used to develop an imaginal disc assay in Drosophila flies. The imaginal leg discs were collected by microscopic dissection from maggots. […] Inhibition was measured as failure of the disc to fully develop into a fly leg after 15 hr of incubation in Robb's growth medium. This presumably occurs by overactivation of Rho, an important signaling pathway in development. Hyper-stimulation of this pathway is sufficient to block development of the fly leg.
Fly Stocks: 20 female and 5 male wild type Oregon variant of Drosophila melanogaster interbred in blue food medium for 24 hours then flies are removed. Third instar wall-crawling larvae collected then dissected on the sixth day. Flies kept in 25° C. incubation chamber.
Blue Food Preparation: Standard corn meal medium heated then mixed completely with aqueous 1% Bromophenol Blue. The food medium is cooled for one day or more before use.
Dissection Medium: Ringer's Buffer with 10 uL 0.1% BSA. Ringer's Medium consists of 130 mM NaCl, 5 mM KCl, 1.5 mM CaCl2-2H2O, Stored at room temperature (23° C.), BSA added before dissection.
Cultivation Medium: Minimal Robb's Medium with 10 uL 0.1% BSA. Minimal Robb's Medium consists of 40 mM KCl, 0.4 mM KH2PO4, 40 mM NaCl, 0.4 mM NaH2PO4.7H2O, 1.2 mM MgSO4.7H2O, 1.2 mM MgCl2-6H2O, 1 mM CaCl2-2H2O, 10 mM Glucose, 0.2 mM L-asparagine, 4.0 mM L-glutamine, 0.16 mM Glycine, 0.64 mM L-leucine, 0.32 mM L-proline, 0.16 mM R-Serine, 0.64 mM L-valine. Stored at −25° C. One day before dissection, aliquot defrosted in 4° C. Add BSA then warmed to room temperature (23° C.) before dissection.
0.1% BSA: 0.1 g BSA fraction V (Sigma#A-9647) in 10 mL distilled H2O, Stored at 4° C.
Developmental Hormone: 1 mg 20-hydroxyecdysone (Sigma #H-5142) in 1 mL 100% Ethanol. Stored at −25° C. Before use, stock is diluted 10× (1 mL added to 9 mL of 100% Ethanol). 10 μL of diluted 20-hydroxyecdysone is added to culture.
Dissection Procedures: Third instar larvae are removed from cultivation bottle with a wetted brush and washed in dH2O to remove food medium clinging to larvae. The cleaned larvae are dissected in Ringer's Medium using forceps. The imaginal discs are washed in fresh Ringer's Medium, and then cultivated with 1 mL of Robb's Medium in 12-well culture plate. Each culture well should have 30˜40 imaginal discs.
Culturing Procedures: In a larger container, place the 12-well culture plate on a moist towel, then seal the large container. Cultivate at 25° C. for 15 hours. Evaluation: Three categories will be used to grade the eversion of each imaginal disc. Full Eversion—the leg is fully extended from the disc. Partial Eversion—the leg is protruding from the epithelial. No Eversion—no sign of any protrusion.

Another assay relates to L1210 cells. The experiment in a line: Cytotoxicity (cell growth, MTT) in L1210 cells. The assay is classed as cell-based, mouse. The note with it: Mus musculus, read-out: L1210 IC50. The source says: (§1) In terms of Table 1, L1210 cells are mouse leukemia cells and are the gold standard in terms of evaluating polyamine cytotoxicity data due to a plethora of prior data in this cell line for other polyamine structures. Clearly 7a was similar in all respects to 4a (Table 1). […] The lower the Ki value, the higher the affinity of the drug for the polyamine transporter (PAT) on the cell surface. Chinese hamster ovary (CHO) cells and a mutant line without an active PAT (CHO-MG) also evaluated the PAT selectivity of these drugs.
Biological Evaluation. Once synthesized, the conjugates were screened for cytotoxicity in L1210, CHO and CHO-MG cells. L1210 (mouse leukemia) cells were selected to enable comparisons with the published IC50 and Ki values for a variety of polyamine substrates. Chinese Hamster Ovary (CHO) cells were chosen along with a mutant PAT deficient cell line (CHO-MG) in order to comment on selective transport via the PAT (Wang et al, J. Med. Chem. 2003, 46, 2663-2671; Wang et al, J. Med. Chem. 2003, 46, 2672-2682; Wang et al., J. Med. Chem. 2003, 46, 5129-5138; Delcros et al., J. Med. Chem., 2002, 45, 5098-5111).
(§2) L1210 IC50 and Ki studies. […] The Ki values in Table 3 were determined for [^14C]spermidine uptake and reflect the affinity of the polyamine derivative for the polyamine transporter on the cell surface. With both parameters, one can determine whether high affinity for the transporter (e.g., low Ki value) translated into high cytotoxicity (e.g., low IC50 value), etc.
(§3) Biological studies. Murine leukemia cells (L1210), CHO and CHO-MG cells were grown in RPMI medium supplemented with 10% fetal calf serum, glutamine (2 mM), penicillin (100 U/mL), streptomycin (50 μg/mL). L-Proline (2 μg/mL) was added to the culture medium for CHO-MG cells. Cells were grown at 37° C. under a humidified 5% CO2 atmosphere. Aminoguanidine (AG, 2 mM) was added to the culture medium to prevent oxidation of the drugs by the enzyme (bovine serum amine oxidase) present in calf serum. Trypan blue staining was used to determine cell viability before the initiation of a cytotoxicity experiment. Cells in early to mid log-phase were used. IC50 determinations. Cell growth was assayed in sterile 96-well microtiter plates (Becton-Dickinson, Oxnard, Calif., USA). L1210 cells were seeded at 5e^4 cells/mL of medium (100 μL/well). CHO and CHO-MG cells were plated at 2e^3 cells/mL. Drug solutions (10 μL per well) of appropriate concentration were added at the time of seeding for L1210 cells and after an overnight incubation for the CHO cell lines. After exposure to the drug for 48 hr, cell growth was determined by measuring formazan formation from 3-(4,5-dimethylthiazol-2-yl)2,5-diphenyltetrazolium using a Titertek Multiskan MCC/340 microplate reader for absorbance (540 nm) measurements (Mosmann, T., J. Immunol. Methods 1983, 65, 55-63).

Assay [2] deals with polyamine transporter (PAT). The assay can be described thus: Ki for inhibition of [14C]spermidine uptake in L1210 cells. The assay is classed as cell-based, mouse. The note with it: [14C]spermidine uptake, 10-min, 1 μM substrate; read-out: L1210 Ki values.
Text: as §1, §2
Ki procedure. The ability of the conjugates to interact with the polyamine transport system was determined by measuring competition by the conjugates against radiolabeled spermidine uptake in L1210 cells. Initially, the Km value of spermidine transport was determined as previously described (Clément et al., Biochem. J. 1995, 312, 933-938). The ability of conjugates to compete for [^14C]spermidine uptake were determined in L1210 cells by a 10-min uptake assay in the presence of increasing concentrations of competitor, using 1 μM [^14C]spermidine as substrate. Ki values for inhibition of spermidine uptake were determined using the Cheng-Prusoff equation (Cheng and Prusoff, Biochem. Pharmacol. 1973, 22, 3099-3108) from the IC50 value derived by iterative curve fitting of the sigmoidal equation describing the velocity of spermidine uptake in the presence of the respective competitor (Torossian et al., Biochem. J., 1996, 319, 21-26). L1210 cells were grown and maintained according to established procedures (Bergeron et al., J. Med. Chem. 2000, 43, 224-235) and were washed twice in HBSS prior to the transport assay.

In a further assay the test system is CHO-MG cells. The experiment in a line: Cytotoxicity in PAT-deficient CHO-MG cells. It counts as cell-based, Chinese hamster. As to conditions: Cricetulus griseus, CHO-MG.
Text: as §1
(§4) CHO and CHO-MG studies. Chinese hamster ovary (CHO) cells were chosen along with a mutant cell line (CHO-MG) in order to comment on how the synthetic conjugates gain access to cells. The CHO-MG cell line is polyamine-transport deficient and was isolated after selection for growth resistance to methylglyoxalbis(guanylhydrazone), MGBG, (CH3C[═N—NHC(═NH)NH2]CH[═N—NHC(═NH)NH2]) using a single-step selection after mutagenesis with ethylmethanesulfonate (Mandel et al., J. Cell. Physiol., 1978, 97, 335-344; Byers et al., Biochem. J. 1989, 263, 745-752).
For the purposes of this study, the CHO-MG cell line represents cells with no PAT activity and provided a model for alternative modes of entry or action, which are independent of PAT. These alternative modes of entry include passive diffusion or utilization of another transporter. The alternative modes of action may also include interactions on the outer surface of the plasma membrane or other membrane receptor interactions.
as §3, with “Aminoguanidine (AG, 2 mM) was added to the culture medium to prevent oxidation of the drugs by the enzyme (bovine serum amine oxidase) present in calf serum.” left out

In the next assay the test system is CHO cells. The experiment in a line: Cytotoxicity in CHO cells. The note with it: for IC50: Cricetulus griseus, CHO. It counts as cell-based, Chinese hamster.
Text: as §1, §4
In contrast, the parent CHO cell line represents a cell type with high PAT activity. Comparison of conjugate cytotoxicity in these two CHO lines provided an important screen to detect selective conjugate delivery via the PAT. For example, a conjugate with high utilization of the polyamine transporter would be very toxic to CHO cells, but less so to CHO-MG cells. In short, highly-selective PAT ligands should give high (CHO-MG/CHO) IC50 ratios.
as §3, with “Aminoguanidine (AG, 2 mM) was added to the culture medium to prevent oxidation of the drugs by the enzyme (bovine serum amine oxidase) present in calf serum.” left out

Like-named read-outs stand apart in the source and are kept apart here.

Turning to `CCN(CCCN)Cc1c2ccccc2cc2ccccc12` [Compound 12c, N^1-Anthracen-9-ylmethyl-N^1-ethyl-propane-1,3-diamine], the inhibition (as a rule, the change of the read-out against control, counted positive when it falls) at 18 µM in assay [1] is 79%.

On to `NCCCCNCc1c2ccccc2cc2ccccc12` [Compound 13b], for which the “% Inhibition of eversion” value in assay [1] (18 μM) was 91%.

Compound `NCCCNCc1c2ccccc2cc2ccccc12` [Compound 16, N1-Anthracen-9-ylmethyl-propane-1,3-diamine] gave an inhibition at 18 µM in assay [1] of 92%.

With `CCN(CCCNCCCO)Cc1c2ccccc2cc2ccccc12` [Compound 20, 3-[3-(Anthracen-9-ylmethyl-ethyl-amino)-propylamino]-propan-1-ol], the inhibition at 18 µM in assay [1] was 38%.

Take `CCOCCCNCCCN(CC)Cc1c2ccccc2cc2ccccc12` [Compound 21, N-Anthracen-9-ylmethyl-N′-(3-ethoxy-propyl)-N-ethyl-propane-1,3-diamine]: in assay [1], at 18 µM the inhibition was 36%.

For `CCN(CCCNCCCNC(C)=O)Cc1c2ccccc2cc2ccccc12` [Compound 24, N-{3-[3-(Anthracen-9-ylmethyl-ethyl-amino)-propylamino]-propyl}-acetamide], in assay [1], the inhibition at 18 µM turned out to be 58%.

In the case of `CCNCCCCNCCCCNCc1c2ccccc2cc2ccccc12` [Compound 27, N-Anthracen-9-ylmethyl-N′-(4-ethylamino-butyl)-butane-1,4-diamine], the IC50 is 1.01 µM in the assay on L1210 cells (L1210, in the presence of AG, 48 h at 37° C.); 1.01 µM with L1210 cells (L1210 experiments, no added SPD); 51.2 µM with CHO-MG cells (absence of AG, 48 h, read-out: CHO-MG IC50 w/o AG); 57.9 µM in the assay with CHO-MG cells (in the presence of AG, 48 h at 37° C., read-out: CHO-MG IC50); 13.2 µM in the assay on CHO cells (absence of AG, 48 h, read-out: CHO IC50 w/o AG); 9.82 µM with CHO cells (in the presence of AG, 48 h at 37° C., read-out: CHO IC50). The Ki (commonly a dissociation constant, usually derived from enzyme kinetics or from competition with a known ligand) in assay [2] came out at 3.5 µM. The “CHOMG/CHO IC50 ratio in the absence of AG” value with CHO cells (absence of AG) worked out at 4. Moreover, the “IC50 Ratio (CHO-MG/CHO) w/o AG” value in the assay with CHO cells (absence of AG) was 4. In the assay with CHO cells (in the presence of AG), the “IC50 Ratio (CHO-MG/CHO), a measure of PAT selectivity” value was found to be 5.9. The “CHOMG/CHO IC50 ratio” value in the assay with CHO cells (with AG) was determined as 5.9. Further, in the assay with CHO cells (with AG), the “IC50 Ratio (CHO-MG/CHO) with AG” value is recorded as 5.9.
